Experimental data: patent US20090093469A1, “Phenylaminopropanol Derivatives and Methods of Their Use” (WYETH, priority 2004, published 2009)
Counter-ions that a name gives are not always drawn.

Target: T1, hNET (Homo sapiens, UniProt P23975)
T1 construct: expressed in transfected cells
Experiment: Norepinephrine (NE) uptake assay in MDCK-Net6 cells stably transfected with human hNET
Assay type: cell-based
Conditions: MDCK-Net6, read-out: % Inhibition @ 1 μM (hNET)

T1 sequence (P23975 whole entry): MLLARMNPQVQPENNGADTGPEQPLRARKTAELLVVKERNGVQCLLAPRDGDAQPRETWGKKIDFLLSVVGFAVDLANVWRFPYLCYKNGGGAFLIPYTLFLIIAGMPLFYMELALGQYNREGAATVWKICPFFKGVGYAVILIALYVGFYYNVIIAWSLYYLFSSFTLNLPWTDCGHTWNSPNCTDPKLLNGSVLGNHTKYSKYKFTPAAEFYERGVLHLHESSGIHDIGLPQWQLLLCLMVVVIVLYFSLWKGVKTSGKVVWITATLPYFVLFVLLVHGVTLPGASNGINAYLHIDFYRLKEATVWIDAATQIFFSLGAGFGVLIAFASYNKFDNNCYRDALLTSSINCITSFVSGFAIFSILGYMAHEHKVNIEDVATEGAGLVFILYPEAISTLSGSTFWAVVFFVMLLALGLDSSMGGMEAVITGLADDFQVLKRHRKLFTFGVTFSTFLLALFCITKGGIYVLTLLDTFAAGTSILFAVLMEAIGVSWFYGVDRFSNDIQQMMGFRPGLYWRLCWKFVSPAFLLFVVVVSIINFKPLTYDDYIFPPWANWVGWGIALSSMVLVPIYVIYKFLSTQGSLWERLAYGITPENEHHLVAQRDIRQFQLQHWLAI

SMILES | inhibition at 1 µM
CNC[C@@H](O)[C@H](c1cccc(F)c1)n1ccc2c(C)cccc21 [Example 96, ((1S,2R)-1-(3-fluorophenyl)-3-(methylamino)-1-(4-methyl-1H-indol-1-yl)propan-2-ol hydrochloride] | 98.2%
CNC[C@@H](O)[C@H](c1ccccc1)n1c(=O)n(C(C)(C)C)c2ccccc21 [Example 192, 1-tert-Butyl-3-(2-hydroxy-3-methylamino-1-phenyl-propyl)-1,3-dihydro-benzoimidazol-2-one hydrochloride] | 54.6%
CNC[C@@H](O)[C@H](c1cccc(F)c1)n1ccc2c(F)cccc21 [Example 184, (1S,2R)-1-(4-fluoro-1H-indol-1-yl)-1-(3-fluorophenyl)-3-(methylamino)propan-2-ol hydrochloride] | 99.7%
CNC[C@@H](O)[C@H](c1ccccc1)n1ccc2cc(OC)ccc21 (racemic) [Example 80, (1RS,2SR)-1-(5-methoxy-1H-indol-1-yl)-3-(methylamino)-1-phenyl propan-2-ol hydrochloride] | 83.5%
CCNC[C@H](O)[C@@H](c1ccccc1)n1cc(C)c2ccccc21 (racemic) [Example 12, (1RS,2SR)-3-(ethylamino)-1-(3-methyl-1H-indol-1-yl)-1-phenyl propan-2-ol hydrochloride] | 70.6%
CCn1c(=O)n([C@@H](c2ccccc2)[C@H](O)CNC)c2cc(F)ccc21 [Example 206, 1-Ethyl-5-fluoro-3-[(1S,2R)-2-hydroxy-3-(methylamino)-1-phenylpropyl]-1,3-dihydro-2H-benzimidazol-2-one hydrochloride] | 96.9%
CNC[C@@H](O)[C@H](c1ccccc1)n1ccc2cc(F)ccc21 [Example 75, (1S,2R)-1-(5-fluoro-1H-indol-1-yl)-3-(methylamino)-1-phenylpropan-2-ol hydrochloride] | 88.4%
CNC[C@@H](O)[C@H](c1cccc(F)c1)n1ccc2cccc(F)c21 [Example 183, (1S,2R)-1-(7-fluoro-1H-indol-1-yl)-1-(3-fluorophenyl)-3-(methylamino)propan-2-ol hydrochloride] | 100%

Same assay, conditions: test compound 1 μM; [3H]NE uptake, MDCK-Net6 cells; read-out: % Inhibition @ 1 μM (hNET)

SMILES | inhibition at 1 µM
CNC[C@@H](O)[C@H](c1cccc(F)c1)N1C(=O)C(C)(C)c2cccc(F)c21 [Example 101, 7-fluoro-1-[(1S,2R)-1-(3-fluorophenyl)-2-hydroxy-3-(methylamino)propyl]-3,3-dimethyl-1,3-dihydro-2H-indol-2-one hydrochloride] | 98.6%
CNC[C@@H](O)[C@H](c1cccc(F)c1)n1cc(-c2ccc(C(C)(C)C)cc2)c2ccccc21 [Example 171, (1S,2R)-1-[3-(4-tert-butylphenyl)-1H-indol-1-yl]-1-(3-fluorophenyl)-3-(methylamino)propan-2-ol hydrochloride] | 98.3%
O[C@@H]([C@@H]1CCCN1)[C@@H](c1cccc(F)c1)n1ccc2ccccc21 [Example 105, (1S,2R)-2-(3-fluorophenyl)-2-(1H-indol-1-yl)-1-[(2S)-pyrrolidin-2-yl]ethanol hydrochloride] | 92.6%
CNC[C@@H](O)[C@H](c1cccc(F)c1)n1ccc2ccc(OC)cc21 [Example 81, (1S,2R)-1-(3-fluorophenyl)-1-(6-methoxy-1H-indol-1-yl)-3-(methyl-amino)propan-2-ol hydrochloride] | 58%
CNC[C@@H](O)[C@H](c1cccc(F)c1)n1cc(C(C)(C)C)c2ccccc21 [Example 189, (1S,2R)-1-(3-tert-butyl-1H-indol-1-yl)-1-(3-fluorophenyl)-3-(methylamino)propan-2-ol] | 99.3%
Cc1cn([C@@H](c2ccccc2)[C@H](O)CN)c2ccc(Cl)cc12 [Example 120, (1S,2R)-3-amino-1-(5-chloro-3-methyl-1H-indol-1-yl)-1-phenylpropan-2-ol hydrochloride] | 68.6%
CNC[C@@H](O)[C@H](c1cccc(F)c1)n1cc(-c2ccccc2Cl)c2ccccc21 [Example 214, (1S,2R)-1-[3-(2-chlorophenyl)-1H-indol-1-yl]-1-(3-fluorophenyl)-3-(methylamino)propan-2-ol hydrochloride] | 99.9%
CNC[C@@H](O)[C@H](c1cccc(F)c1)n1cc(-c2cccc(F)c2)c2ccccc21 [Example 116, (1S,2R)-1-(3-fluorophenyl)-1-[3-(3-fluorophenyl)-1H-indol-1-yl]-3-(methylamino)propan-2-ol hydrochloride] | 97.3%
CNC[C@@H](O)[C@H](c1ccccc1)n1cc(C)c2cc(F)ccc21 [Example 117, (1S,2R)-1-(5-fluoro-3-methyl-1H-indol-1-yl)-3-(methylamino)-1-phenylpropan-2-ol hydrochloride] | 95.3%
CNC[C@@H](O)[C@H](c1cccc(F)c1)N1C(=O)C(C)(C)c2ccccc21 [Example 210, 1-[(1S,2R)-1-(3-fluorophenyl)-2-hydroxy-3-(methylamino)propyl]-3,3-dimethyl-1,3-dihydro-2H-indol-2-one hydrochloride] | 96.3%
CNC[C@@H](O)[C@H](c1cccc(F)c1)n1cc(-c2ccc(OC)cc2)c2ccccc21 [Example 169, (1S,2R)-1-(3-fluorophenyl)-1-[3-(4-methoxyphenyl)-1H-indol-1-yl]-3-(methylamino)propan-2-ol hydrochloride] | 72%

Continued, values first:

inhibition at 1 µM | SMILES
92.9% | CNC[C@@H](O)[C@H](c1ccccc1)n1ccc2cc(Br)ccc21 [Example 126, (1S,2R)-1-(5-bromo-1H-indol-1-yl)-3-(methylamino)-1-phenylpropan-2-ol hydrochloride]
96.7% | CNC[C@@H](O)[C@H](c1ccc(F)c(F)c1)n1ccc2ccccc21 [Example 140, (1S,2R)-1-(3,4-difluorophenyl)-1-(1H-indol-1-yl)-3-(methylamino)propan-2-ol hydrochloride]
98.2% | CNC[C@@H](O)[C@H](c1cccc(C#N)c1)n1ccc2ccccc21 [Example 44, 3-[(1S,2R)-2-hydroxy-1-(1H-indol-1-yl)-3-(methylamino)propyl]benzonitrile hydrochloride]
94.2% | CNC[C@@H](O)[C@H](c1ccccc1)N1C(=O)C(C)(C)c2ccccc21 [Example 100, 1-[(1S,2R)-2-hydroxy-3-(methylamino)-1-phenylpropyl]-3,3-dimethyl-1,3-dihydro-2H-indol-2-one hydrochloride]
66% | CNC[C@@H](O)[C@H](c1ccccc1)n1ccc2ccc(OC)cc21 [Example 79, (1S,2R)-1-(6-methoxy-1H-indol-1-yl)-3-(methylamino)-1-phenyl propan-2-ol hydrochloride]
91.7% | CNC[C@@H](O)[C@H](c1ccccc1)n1ccc2ccc(Cl)cc21 [Example 147, (1S,2R)-1-(6-chloro-1H-indol-1-yl)-3-(methylamino)-1-phenylpropan-2-ol hydrochloride]
94.3% | CNC[C@@H](O)[C@H](c1cccc(OC(F)(F)F)c1)n1ccc2ccccc21 [Example 35, (1S,2R)-1-(1H-indol-1-yl)-3-(methylamino)-1-[3-(trifluoromethoxy)phenyl]propan-2-ol hydrochloride]
53.7% | CNC[C@@](C)(O)[C@H](c1ccccc1)n1ccc2ccccc21 [Example 190, (1S,2R)-1-(1H-indol-1-yl)-2-methyl-3-(methylamino)-1-phenylpropan-2-ol hydrochloride]
24.5% | CN(C)C[C@H](O)[C@@H](c1ccccc1)n1ccc2ccccc21 (racemic) [Example 4, (1RS,2SR)-3-(dimethylamino)-1-(1H-indol-1-yl)-1-phenylpropan-2-ol hydrochloride]
40.9% | CNC[C@@H](O)[C@H](c1ccccc1)n1ccc2ccncc21 [Example 84, (1S,2R)-3-methylamino-1-phenyl-1-(1H-pyrrolo[2,3-c]pyridin-1-yl) propan-2-ol dihydrochloride]
21.8% | CNC[C@@H](O)[C@H](c1ccccc1)n1c(C)nc2ccccc21 (racemic) [Example 73, (1RS,2SR)-3-(methylamino)-1-(2-methyl-1H-benzimidazol-1-yl)-1-phenylpropan-2-ol hydrochloride]
86.1% | CNC[C@@H](O)[C@H](c1cccs1)n1ccc2ccccc21 [Example 103, (1R,2R)-1-(1H-indol-1-yl)-3-(methylamino)-1-(2-thienyl)propan-2-ol hydrochloride]
53.9% | CNC[C@@H](O)[C@H](c1ccccc1)n1ccc2cccnc21 [Example 82, (1S,2R)-3-(methylamino)-1-phenyl-1-(1H-pyrrolo[2,3-b]pyridin-1-yl)propan-2-ol]
77.7% | CNC[C@@H](O)[C@H](c1ccc(OC)cc1)n1ccc2ccccc21 (racemic) [Example 70, (1SR,2RS)-1-(1H-indol-1-yl)-1-(4-methoxyphenyl)-3-(methylamino)propan-2-ol hydrochloride]
24.4% | O[C@@H](CNCc1ccncc1)[C@@H](c1ccccc1)n1ccc2ccccc21 (racemic) [Example 14, (1RS,2SR)-1-(1H-indol-1-yl)-1-phenyl-3-[(pyridin-4-ylmethyl)amino]propan-2-ol hydrochloride]
34.3% | O[C@@H](CN1CCNCC1)[C@@H](c1ccccc1)n1ccc2ccccc21 (racemic) [Example 13, (1RS,2SR)-1-(1H-indol-1-yl)-1-phenyl-3-piperazin-1-ylpropan-2-ol dihydrochloride]
97.6% | CNC[C@@H](O)[C@H](c1ccccc1)n1ccc2cc(C)ccc21 [Example 95, (1S,2R)-3-(methylamino)-1-(5-methyl-1H-indol-1-yl)-1-phenylpropan-2-ol hydrochloride]

Same assay, conditions: test compound 10 μM (stated in cell); [3H]NE uptake, MDCK-Net6 cells

inhibition at 10 µM | SMILES
70.5% | Cc1cn([C@H](c2ccccc2)[C@@H](O)CNC(C)C)c2ccccc12 (racemic) [Example 10, (1RS,2SR)-3-(isopropylamino)-1-(3-methyl-1H-indol-1-yl)-1-phenylpropan-2-ol hydrochloride]
